Where “and” joins values, the source holds several entries; their conditions need not be identical. Equal entries are not always repeated.
Assay: xn = mol fraction of the nth substance listed

CC(O)CN1CC[NH+](CC(C)O)CC1.CC(O)CN1CC[NH+](CC(C)O)CC1.O=S(=O)([O-])[O-] (stereo not drawn) + O
viscosity [mPa·s], 101 kPa
Conditions | 298.15 K | 303.15 K | 308.15 K | 313.15 K | 318.15 K | 323.15 K
x1 = 0.0024 | 1.1 | 0.975 | 0.869 | 0.816 | 0.721 | 0.665
x1 = 0.00505 | 1.382 | 1.232 | 1.111 | 1.026 | 0.906 | 0.807
x1 = 0.00812 | 1.834 | 1.634 | 1.434 | 1.355 | 1.176 | 1.025
x1 = 0.0117 | 2.454 | 2.221 | 1.934 | 1.739 | 1.513 | 1.311
x1 = 0.0158 | 3.565 | 3.115 | 2.653 | 2.327 | 2.009 | 1.727
x1 = 0.0208 | 5.31 | 4.49 | 3.747 | 3.216 | 2.675 | 2.282

CCCCCCCCCCCCCC[P+](CCCCCC)(CCCCCC)CCCCCC.c1ccc2[n-]cnc2c1 + O
Conditions | viscosity [mPa·s]
298.15 K, 100 kPa, x2 = 0.759 | 207

Nc1ccn([C@@H]2O[C@H](CO)C(O)C2O)c(=O)n1 (stereo partly drawn) + O
viscosity [mPa·s], 101.3 kPa
Conditions | 293.15 K | 298.15 K | 303.15 K | 308.15 K | 313.15 K | 318.15 K
x1 = 0.0001861 | – | 0.895 | – | 0.723 | – | 0.6
x1 = 0.000263 | 1.008 | 0.897 | 0.809 | 0.74 | 0.625 | –
x1 = 0.000342 | 1.009 | 0.898 | 0.81 | 0.741 | 0.626 | –
x1 = 0.0003829 | – | 0.899 | – | 0.727 | – | 0.603
x1 = 0.000448 | 1.012 | 0.901 | 0.813 | 0.744 | 0.628 | –
x1 = 0.000537 | 1.014 | 0.903 | 0.815 | 0.746 | 0.63 | –
x1 = 0.0005621 | – | 0.903 | – | 0.73 | – | 0.606
x1 = 0.000632 | 1.016 | 0.905 | 0.817 | 0.748 | 0.632 | –
x1 = 0.000689 | – | 0.906 | – | 0.733 | – | 0.608
x1 = 0.000722 | 1.018 | 0.907 | 0.819 | 0.75 | 0.634 | –
x1 = 0.0007525 | – | 0.907 | – | 0.734 | – | 0.609
x1 = 0.0007845 | – | 0.909 | – | 0.735 | – | 0.609

O=[N+]([O-])[O-].O=[N+]([O-])[O-].O=[N+]([O-])[O-].[Y+3] + O
viscosity [mPa·s], 101.3 kPa
Conditions | x1 = 0.008908 | x1 = 0.01764 | x1 = 0.02626 | x1 = 0.03447 | x1 = 0.05042 | x1 = 0.06636 | x1 = 0.08199
293.15 K | 1.335 | 1.809 | 2.474 | 3.484 | 7.18 | 15.24 | 33.5
298.15 K | 1.191 | 1.61 | 2.197 | 3.056 | 6.164 | 12.8 | 26.72
308.15 K | 0.9655 | 1.305 | 1.765 | 2.405 | 4.677 | 8.991 | 18.14

[Br-].[K+] + O
Conditions | viscosity
293.15 K, 101.3 kPa, x1 = 0.0009 | 0.9993 mPa·s
293.15 K, 101.3 kPa, x1 = 0.0018 | 0.9961 mPa·s
293.15 K, 101.3 kPa, x1 = 0.00893 | 0.9721 mPa·s
293.15 K, 101.3 kPa, x1 = 0.03478 | 0.9229 mPa·s
293.15 K, 101.3 kPa, x1 = 0.05127 | 0.9162 mPa·s
293.15 K, 101.3 kPa, x1 = 0.06722 | 0.9253 mPa·s
298.15 K, 100 kPa, x1 = 0.002229 | 0.8854 mPa·s
298.15 K, 100 kPa, x1 = 0.004266 | 0.8805 mPa·s
298.15 K, 100 kPa, x1 = 0.008299 | 0.8743 mPa·s
298.15 K, 100 kPa, x1 = 0.03864 | 0.8498 mPa·s
298.15 K, 101.3 kPa, x1 = 0.0009 | 0.8884 mPa·s and 0.8888 mPa·s
298.15 K, 101.3 kPa, x1 = 0.001798 | 0.8873 mPa·s
298.15 K, 101.3 kPa, x1 = 0.0018 | 0.8862 mPa·s
298.15 K, 101.3 kPa, x1 = 0.00359 | 0.8842 mPa·s
298.15 K, 101.3 kPa, x1 = 0.005732 | 0.8803 mPa·s
298.15 K, 101.3 kPa, x1 = 0.008927 | 0.8746 mPa·s
298.15 K, 101.3 kPa, x1 = 0.00893 | 0.8692 mPa·s
298.15 K, 101.3 kPa, x1 = 0.01421 | 0.8666 mPa·s
298.15 K, 101.3 kPa, x1 = 0.0177 | 0.8529 mPa·s
298.15 K, 101.3 kPa, x1 = 0.02116 | 0.8588 mPa·s
298.15 K, 101.3 kPa, x1 = 0.03478 | 0.8352 mPa·s
298.15 K, 101.3 kPa, x1 = 0.05127 | 0.8342 mPa·s
303.15 K, 101.3 kPa, x1 = 0.0009 | 0.7962 mPa·s
303.15 K, 101.3 kPa, x1 = 0.0018 | 0.7947 mPa·s
303.15 K, 101.3 kPa, x1 = 0.00893 | 0.7827 mPa·s
303.15 K, 101.3 kPa, x1 = 0.03478 | 0.7609 mPa·s
303.15 K, 101.3 kPa, x1 = 0.05127 | 0.7639 mPa·s
303.15 K, 101.3 kPa, x1 = 0.06722 | 0.7781 mPa·s
308.15 K, 101.3 kPa, x1 = 0.0009 | 0.7187 mPa·s and 0.7188 mPa·s
308.15 K, 101.3 kPa, x1 = 0.001798 | 0.7187 mPa·s
308.15 K, 101.3 kPa, x1 = 0.0018 | 0.7177 mPa·s
308.15 K, 101.3 kPa, x1 = 0.00359 | 0.7178 mPa·s
308.15 K, 101.3 kPa, x1 = 0.005732 | 0.7165 mPa·s
308.15 K, 101.3 kPa, x1 = 0.008927 | 0.7145 mPa·s
308.15 K, 101.3 kPa, x1 = 0.00893 | 0.7095 mPa·s
308.15 K, 101.3 kPa, x1 = 0.01421 | 0.7121 mPa·s
308.15 K, 101.3 kPa, x1 = 0.0177 | 0.7021 mPa·s
308.15 K, 101.3 kPa, x1 = 0.02116 | 0.7104 mPa·s
308.15 K, 101.3 kPa, x1 = 0.03478 | 0.6969 mPa·s
308.15 K, 101.3 kPa, x1 = 0.05127 | 0.7029 mPa·s
308.15 K, 101.3 kPa, x1 = 0.06722 | 0.7189 mPa·s
312.45 K, 100 kPa, x1 = 0.002229 | 0.661 mPa·s
312.85 K, 100 kPa, x1 = 0.01672 | 0.6499 mPa·s
313.55 K, 100 kPa, x1 = 0.03864 | 0.6449 mPa·s
313.85 K, 100 kPa, x1 = 0.004266 | 0.6426 mPa·s
313.95 K, 100 kPa, x1 = 0.008299 | 0.6399 mPa·s
318.15 K, 101.3 kPa, x1 = 0.0009 | 0.5963 mPa·s and 0.5961 mPa·s
318.15 K, 101.3 kPa, x1 = 0.001798 | 0.5966 mPa·s
318.15 K, 101.3 kPa, x1 = 0.0018 | 0.596 mPa·s
318.15 K, 101.3 kPa, x1 = 0.00359 | 0.5969 mPa·s
318.15 K, 101.3 kPa, x1 = 0.005732 | 0.5913 mPa·s
318.15 K, 101.3 kPa, x1 = 0.008927 | 0.5975 mPa·s
318.15 K, 101.3 kPa, x1 = 0.00893 | 0.5928 mPa·s
318.15 K, 101.3 kPa, x1 = 0.01421 | 0.5983 mPa·s
318.15 K, 101.3 kPa, x1 = 0.0177 | 0.5908 mPa·s
318.15 K, 101.3 kPa, x1 = 0.02116 | 0.5998 mPa·s
318.15 K, 101.3 kPa, x1 = 0.03478 | 0.593 mPa·s
318.15 K, 101.3 kPa, x1 = 0.05127 | 0.6036 mPa·s
318.15 K, 101.3 kPa, x1 = 0.06722 | 0.6221 mPa·s
321.85 K, 100 kPa, x1 = 0.002229 | 0.5597 mPa·s
322.75 K, 100 kPa, x1 = 0.01672 | 0.5528 mPa·s
322.95 K, 100 kPa, x1 = 0.004266 | 0.552 mPa·s

Reference: the CheMixHub viscosity set
